Assay: gradient 5% acetonitrile 3 min, to 50% in 2 min, to 85% in 15 min, held 3 min, 100 µL/min
Settings: column: Zorbax Extend-C18 2.1 x 50 mm; eluents: water / acetonitrile, 0.1% formic acid
Outline: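 Retention times come from adduct peaks that were picked computationally and then checked by hand. The standards, pure and pooled in mixtures of ~100 molecules, were run on a Zorbax Extend-C18 column (2.1 × 50 mm, 1.8 μm) at 100 μL/min with water and acetonitrile, each with 0.1% formic acid. Detection was by quadrupole time-of-flight mass spectrometry in positive and negative ionization mode, with a dead volume of 40 μL and a dwell volume of 900 μL.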

`Cc1cccc(NC(=O)c2cc(C)n3nccc3n2)c1` gave an RP-LC retention time of 955 s.
For `CCOCCCNC(=O)C1c2ccccc2C(=O)N(C)C1c1cccs1` (centres undefined), the RP-LC retention time was 722 s.
Compound `COc1ccc(-c2noc(NC3CCCC3)n2)cc1` has an RP-LC retention time of 951 s.
With `CCOC(=O)c1c(S(=O)(=O)N2CC=C(c3ccccc3)CC2)n[nH]c1CC` the RP-LC retention time was 927 s.
In the case of `c1ccc(-c2cccc(-c3ccccn3)n2)nc1`, the RP-LC retention time is reported as 608 s.
Compound `CC1(C)C(=O)N(CC(=O)Nc2ccc(F)cc2F)c2ccccc21` has an RP-LC retention time of 871 s.
`Cc1noc(C)c1Cn1cccc(S(=O)(=O)N2CCCC2)c1=O` gave an RP-LC retention time of 644 s.
`O=C(c1ccco1)N1CCCCC1c1nc(C2CC2)n[nH]1` (centres undefined) showed an RP-LC retention time of 625 s.
Work on `Cc1cc2n(n1)CCC(=O)N2CCCC(=O)NCCCN1CCc2ccccc2C1` yielded an RP-LC retention time of 580 s.
Work on `Cc1noc(C)c1S(=O)(=O)NCCOc1cc(N2CCOCC2)ncn1` yielded an RP-LC retention time of 643 s.
Compound `Cc1ccc(C)c(S(=O)(=O)N2CCC(c3nc(C(=O)N4CCOCC4)c(C)o3)CC2)c1` has an RP-LC retention time of 891 s.
`COC(=O)C1=CN(c2cc(Cl)c(OC)cc2OC)c2cc(F)ccc2S1(=O)=O` showed an RP-LC retention time of 918 s.
Work on `CN(CC(=O)N1CCN(c2ccc(Cl)cc2)CC1)S(=O)(=O)c1ccc2c(c1)CCCC(=O)N2` yielded an RP-LC retention time of 828 s.
`Cc1ccc(-c2noc(C3CCCN3C(=O)NC3CCCCC3)n2)cc1` (centres undefined) gave an RP-LC retention time of 1020 s.
For `CC(C)n1cnc2ccc(-c3noc(COc4ccccc4)n3)cc21`, the RP-LC retention time was 770 s.
With `CCc1nnc2c(=O)n(CC(=O)N3CCN(c4ccccn4)CC3)c3cccnc3n12` the RP-LC retention time was 560 s.
`O=C(c1ccncn1)N1CC(n2cnnc2C2CCCO2)C1` (centres undefined) gave an RP-LC retention time of 580 s.
Compound `Cn1nc(C(=O)N2CCCC(C(=O)Nc3ccccc3)C2)c2c1CCN(C(=O)c1ccc(F)cc1)C2` (centres undefined) has an RP-LC retention time of 756 s.
For `COc1cc2c(cc1OC)CC(=O)N(CCCN(C)C[C@H]1Cc3cc(OC)c(OC)cc31)CC2`, the RP-LC retention time was 677 s.
For `CC1(C)CC(=O)CC(C)(C)N1O`, the RP-LC retention time was 666 s.
Work on `O=C(Cn1cnc(-c2noc(-c3ccncc3)n2)c1)NCc1ccc(Cl)cc1` yielded an RP-LC retention time of 695 s.
For `CC(C)(Cc1c[nH]c2ccc(Cl)cc12)NCCOc1ccccc1OCC1CC1`, the RP-LC retention time was 953 s.
`O=C(NCc1cccc(Br)c1)c1csc(C(=O)N2CCCC2)n1` showed an RP-LC retention time of 850 s.
Work on `O=C(NCCC1=CCCCC1)C1CCN(c2ccncc2)CC1` yielded an RP-LC retention time of 638 s.
`CC(C)CCNC(=O)c1cn2cc(Cl)ccc2n1` gave an RP-LC retention time of 825 s.
`N#CC1(C(=O)NCc2nc(-c3ccccc3)no2)CC1` showed an RP-LC retention time of 729 s.
In the case of `CCCC1c2nccn2CCCN1C(=O)c1conc1C` (centres undefined), the RP-LC retention time is reported as 568 s.
`CN1C(=O)c2cccc(NC(=O)C3COc4ccccc4O3)c2C1=O` (centres undefined) showed an RP-LC retention time of 913 s.
`Cn1nc(-c2nc(C3CC3)no2)c2c1CCN(C(=O)c1cc3c(s1)CCCC3)C2` gave an RP-LC retention time of 1010 s.
With `O=C(NCCCN1CCCC1=O)C1CCN(c2cncnc2N2CCCCC2)CC1` the RP-LC retention time was 582 s.
In the case of `Cc1nc(-c2noc(-c3ccc(F)cc3)n2)cn1CC(=O)NCc1ccc(Cl)cc1`, the RP-LC retention time is reported as 896 s.
For `Cc1nnc2c(=O)n(CC(=O)NCC3CC3)c3cccnc3n12`, the RP-LC retention time was 610 s.
`Cc1nc2cccnc2n1C1CCN(C(=O)c2cccc(Cl)c2)C1` (centres undefined) showed an RP-LC retention time of 602 s.
In the case of `COc1ccc(CCNC(=O)COc2cc(=O)n3ccccc3n2)cc1`, the RP-LC retention time is reported as 631 s.
`Cc1ccc(CNc2ccc3nnc(C4CCC4)n3n2)o1` gave an RP-LC retention time of 883 s.
With `O=C(CSC1CCc2ccccc2NC1=O)Nc1ccc(Cl)cc1Cl` (centres undefined) the RP-LC retention time was 930 s.
`CC(C)(C)c1noc(-c2ccnc(-n3cnc(C(=O)N4CCOCC4)c3)c2)n1` showed an RP-LC retention time of 808 s.
Work on `Cc1nc(N2CCCC2)c2c(C(=O)Nc3ccc(Cl)cc3)c(C)oc2n1` yielded an RP-LC retention time of 848 s.
In the case of `COc1ccc(-c2nnc(N3CCC(C(=O)NCCC(C)C)CC3)o2)cc1`, the RP-LC retention time is reported as 838 s.

From the METLIN SMRT retention time set (Domingo-Almenara et al. 2019)
